Tests used:
[1] = target: T1, human norepinephrine transporter (hNET) (Homo sapiens, UniProt P23975); assay: hNET scintillation proximity assay (SPA), competition with [3H]-Nisoxetine; assay type: binding; conditions: membranes of HEK-293 cells expressing recombinant hNET, Ki by Cheng-Prusoff
T1 construct: expressed in transfected cells; host or cells: HEK-293 (Clone: HEK-hNET #2)
Protocol: Screening for Compounds Active at Human Norepinephrine Transporter (HNET) Using a Scintillation Proximity Assay (SPA)
This assay was used to determine the affinity of ligands for the hNET transporter by competition with [^3H]-Nisoxetine. As in the hSERT assay of the above example, receptor-containing membranes were pre-coupled to the SPA beads and the binding of the appropriate radioligand to the transporter was measured. The light emission was proportional to the amount of bound radioligand, with unbound radioligand producing no signal. […]
Cell membranes were prepared using a membrane preparation buffer of 50 mM TRIS (pH 7.4). […] After a second centrifugation, the pellet was re-homogenized and brought to a final volume determined during the assay. […]
^3[H] […] The mixtures were allowed to stand at room temperature for one hour, and were then counted on a Packard TopCount LCS, a generic SPA counting protocol settings (Energy Range: Low, Efficiency Mode: Normal, Region A: 1.50-35.00, Region B: 1.50-256.00, Count Time (min.): 0.40, Background Subtract: none, Half-Life Correction: no, Quench Indicator: tSIS, Platemap blank subtraction: No, Cross talk reduction: Off).
(§1) The % inhibition was calculated for each compound tested [(Compound CPM at maximum concentration-Non-Specific CPM)/Total CPM*100]. […]

[2] = target: T2, human dopamine transporter (hDAT) (Homo sapiens, UniProt Q01959); assay: hDAT scintillation proximity assay (SPA), competition with [3H]-Vanoxerine; assay type: binding; conditions: HEK-293 cells expressing recombinant hDAT, Ki by Cheng-Prusoff
T2 construct: expressed in transfected cells; host or cells: HEK-293
T2 sequence (Q01959 whole entry): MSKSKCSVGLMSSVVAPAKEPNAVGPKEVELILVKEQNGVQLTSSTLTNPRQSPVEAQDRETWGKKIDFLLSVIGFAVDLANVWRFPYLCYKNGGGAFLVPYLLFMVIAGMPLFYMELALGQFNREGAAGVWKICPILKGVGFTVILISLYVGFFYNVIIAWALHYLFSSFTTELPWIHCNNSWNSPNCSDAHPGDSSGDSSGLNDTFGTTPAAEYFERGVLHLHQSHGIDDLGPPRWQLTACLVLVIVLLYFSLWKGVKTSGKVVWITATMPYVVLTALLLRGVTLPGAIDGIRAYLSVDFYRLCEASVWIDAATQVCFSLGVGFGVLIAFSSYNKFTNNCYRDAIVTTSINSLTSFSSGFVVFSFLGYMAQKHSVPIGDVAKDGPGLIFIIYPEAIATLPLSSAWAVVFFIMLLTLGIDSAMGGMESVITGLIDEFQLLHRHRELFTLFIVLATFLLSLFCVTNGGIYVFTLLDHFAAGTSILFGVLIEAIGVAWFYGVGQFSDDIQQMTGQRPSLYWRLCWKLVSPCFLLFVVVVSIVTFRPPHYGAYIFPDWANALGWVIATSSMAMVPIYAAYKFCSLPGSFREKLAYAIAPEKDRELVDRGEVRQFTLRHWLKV
Protocol: Screening for Compounds Active at Human Dopamine Transporter Using a Scintillation Proximity Assay (SPA)
This assay was used to determine the affinity of ligands for the dopamine transporter by competition with [^3H]-Vanoxerine.
HEK-293 cells (Tatsumi et al., Eur. J. Pharmacol. 1997, 30, 249-258) stably expressing recombinant hDAT were maintained with media (DMEM hi glucose with 10% FBS, 300 μg/ml G418 and 2 mM L-Glutamine) and incubated at 37° C. with 5% CO2. Cells were plated four hours prior to experiment by placing approximately 30,000 cells per well (in PBS) on white, opaque Cell-Tak coated 96 well plates. Extra buffer was apriated from the cell plates using an ELx405 plate washer.
^3[H] vanoxerine (GBR 12909) radioligand, specific activity approximately 59 Ci/mmol, stock concentration, 400 nM, and 50 mM Tris-HCl, 300 mM NaCl, (pH 7.4) buffers were used for Scintillation Proximity Assay IC50/Ki determination. […]
as §1
[formula] where max=total binding, min=non specific binding, x=concentration (M) of the tested compound and n=Hill slope. The inhibition dissociation constant (Ki) of each compound was determined according to the method of Cheng-Prusoff and then converted into negative logarithm (pKi) of the Ki.

T1 sequence (P23975 whole entry): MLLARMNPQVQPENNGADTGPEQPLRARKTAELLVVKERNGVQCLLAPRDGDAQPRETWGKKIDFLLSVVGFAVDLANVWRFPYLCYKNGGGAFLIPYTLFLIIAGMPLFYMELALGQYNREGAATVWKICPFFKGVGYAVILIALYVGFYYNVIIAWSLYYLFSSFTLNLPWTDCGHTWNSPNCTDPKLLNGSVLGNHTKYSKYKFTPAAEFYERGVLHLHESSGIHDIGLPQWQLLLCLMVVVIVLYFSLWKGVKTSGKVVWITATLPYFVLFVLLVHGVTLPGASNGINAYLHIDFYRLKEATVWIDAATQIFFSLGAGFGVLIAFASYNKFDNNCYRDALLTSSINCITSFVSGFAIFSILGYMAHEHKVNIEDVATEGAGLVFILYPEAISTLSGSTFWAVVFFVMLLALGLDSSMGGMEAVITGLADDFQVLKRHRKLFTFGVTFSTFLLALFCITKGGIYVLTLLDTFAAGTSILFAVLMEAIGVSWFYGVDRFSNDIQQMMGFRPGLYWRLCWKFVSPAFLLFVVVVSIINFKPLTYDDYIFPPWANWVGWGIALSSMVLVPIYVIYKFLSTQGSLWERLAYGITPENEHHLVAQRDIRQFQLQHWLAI

Ki [1]	Compound	Ki [2]
~6.31 nM	c1ccc(OCC2CNCCN2c2ccc3[nH]ncc3c2)cc1 (centres unmarked) [5-(2-Phenoxymethyl-piperazin-1-yl)-1H-indazole]	–
–	c1cc2[nH]ncc2cc1N1CCNC[C@H]1CCC1CC1 [5-[(R)-2-(2-Cyclopropyl-ethyl)-piperazin-1-yl]-1H-indazole]	~12.6 nM

Source: patent US7998963B2, “Arylpiperazine derivatives and uses thereof” (Roche Palo Alto LLC, priority 2008, dated 2011)
